{"source": "patent US20250049735A1", "about": "“MEDICINE FOR STEATOHEPATITIS” (The University of Tokyo, priority 2021, published 2025)", "test_system": "Tax-iIEC-KO mice", "details": "for concentration of betaine in the liver / concentration of choline in the liver: compared with control mice", "from_the_text": "Atp8b1^flox/flox mice were mated with villin-Cre/ERT2 transgenic mice (Stock No. 020282; The Jackson Laboratory), and Atp8b1^flox/+; villin-Cre/ERT2 mice in the obtained offsprings were then mated with Atp8b1^flox/flox mice to obtain Tamoxifen-induced, intestinal epithelial cell (IEC)-specific Atp8b1 knockout (Atp8b1Tax-iIEC-KO: Atp8b1^flox/flox; villin-Cre/ERT2) mice (Atp8b1 Tax-iIEC-KO mice). The resulting Atp8b1 Tax-iIEC-KO mice and littermate Atp8b1^flox/flox mice were used for animal experiments.\nALT and AST were determined by automatic measurement with Dri-chem (FUJIFILM, Tokyo, Japan).\nThe liver was cut into small pieces, was then fixed with 10% neutral buffered formalin, and was then embedded in paraffin. The small intestine was rinsed with PBS, was fixed with 10% neutral buffered formalin, was then cut into 2 segments (corresponding to the proximal side and the distal side), and was then opened longitudinally. The thus cut small intestine was opened with a toothpick, was immobilized with a pathological pin, was then fixed with 10% neutral buffered formalin, and was then embedded in paraffin. Paraffin sections (3 μm each) were prepared, and were then deparaffinized and rehydrated. Thereafter, the resulting paraffin sections were stained with hemotoxylin and eosin, and were then mounted in Entellan new (Merck, Branchburg, NJ).\nThe concentrations of choline, betaine, dimethylglycine (N,N-dimethylglycine) and glycerophosphorylcholine (sn-glycero-3-phosphocholine) in plasma were determined by liquid chromatography/tandem mass spectrometry (LC/MS/MS) assay. The sample was mixed with 98-fold volume of ethanol and 1-fold volume of the internal standard (IS) solution (10 μmol/L choline in water, 10 μmol/L glycerophosphorylcholine in water, and 1 μmol/L betaine in water). After vortex mixing, the sample was centrifuged at 21,500×g at 4° C. for 5 minutes. The obtained supernatant was injected into a UHPLC Nexera liquid chromatography system (Shimadzu co., Kyoto, Japan) equipped with an Ascentis Express HILIC column (2.1×50 mm, 2.7 μm, Merck KGaA, Darmstadt, Germany), and was then maintained at 4° C. The analyte was separated from the internal standard by gradient elution of mobile phase A (10 mmol/L ammonium acetate in water) and of mobile phase B (acetonitrile/water mixture) (99:1, v/v)). The gradient elution was carried out under the following conditions: 0-2 min., 82.5% B; 2-4 min., 82.5% to 5% B and 4-7 min. 5% B with a flow rate of 0.6 mL/min. The eluate was directly subjected to electrospray ionization under a positive ion mode using a 5500QTRAP mass spectrometer (Sciex pte. ltd., Toronto, Canada). All target molecules were scanned by selected reaction monitoring (SRM) mode.\nEight-week-old Tax-iIEC-KO mice and control mice were started to be fed with a control diet, a 0.3% choline supplemented diet, or a 1% choline supplemented diet, and at the same time, the Tax-iIEC-KO mice and the control mice were administered with 1 mg/day of Tamoxifen for 5 consecutive days. Thereafter, the mice were dissected at 10 weeks of age.", "key": {"[1]": {"details": "0.3% choline supplemented diet, 8 to 10 weeks of age"}, "[2]": {"details": "choline supplemented diet (0.3% or 1%) from 8 to 10 weeks of age, Tamoxifen 1 mg/day for 5 days"}}, "note": "Like-named read-outs stand apart in the source and are kept apart here.", "data": [{"smiles": "C[N+](C)(C)CCO", "note": "[choline]", "values": [{"measurement": "increase in liver injury markers (AST and ALT)", "setting": "[1]", "value": "suppressed"}, {"measurement": "onset of steatohepatitis (liver pathological images)", "setting": "[1]", "value": "suppressed"}, {"measurement": "concentration of betaine in the liver", "setting": "0.3% choline supplemented diet", "value": "recovered"}, {"measurement": "concentration of choline in the liver", "setting": "0.3% choline supplemented diet", "value": "recovered"}, {"measurement": "increase in liver injury markers (AST and ALT)", "setting": "1% choline supplemented diet, 8 to 10 weeks of age", "value": "suppressed"}, {"measurement": "concentration of betaine in the liver", "setting": "1% choline supplemented diet", "value": "recovered"}, {"measurement": "concentration of choline in the liver", "setting": "1% choline supplemented diet", "value": "recovered"}, {"measurement": "body weight", "setting": "[2]", "value": "not changed"}, {"measurement": "small intestine length", "setting": "[2]", "value": "not changed"}]}]}
